Experiment [1] concerns the target Wnt-responsive promoter (TCF/LEF). Put plainly: Wnt-dependent luciferase reporter assay. In kind it is cell-based, murine. On the procedure: The luciferase reporter assay is commonly used as a tool to study gene expression at the transcriptional level. Peptides from libraries described herein were characterized for ability to suppress transcription in cells with luciferase expression controlled by a Wnt-responsive promoter. Peptides were added to cells transfected with luciferase gene downstream of a Wnt-responsive promoter. Cells were stimulated with Wnt3a protein and incubated with peptides from libraries described herein. Luminescence was recorded to determine the peptides with the highest β-catenin-inhibiting activity. EC50 values were calculated based on the inhibition of luminescence and expressed as concentration (uM) in Table 5.
Peptides were assessed for their ability to inhibit Wnt signaling. Murine 3T3 fibroblasts that express luciferase under a Wnt-responsive promoter (TCF/LEF) (Enzo Life Sciences, Farmingdale, NY) were stimulated with Wnt3a in the presence of increasing concentrations of peptide inhibitor (Hit 1: SEQ ID NO:217, Hit 2: SEQ ID NO:224, Hit 3: SEQ ID NO:228, Hit 4: SEQ ID NO:227, Hit 5: SEQ ID NO:220, Hit 6: SEQ ID NO:168. Hit 7: SEQ ID NO:226) or with vehicle control (FIG. 2A).

For experiment [2], the target named is T1, β-catenin (Homo sapiens, UniProt P35222).
T1 sequence (P35222 1-781): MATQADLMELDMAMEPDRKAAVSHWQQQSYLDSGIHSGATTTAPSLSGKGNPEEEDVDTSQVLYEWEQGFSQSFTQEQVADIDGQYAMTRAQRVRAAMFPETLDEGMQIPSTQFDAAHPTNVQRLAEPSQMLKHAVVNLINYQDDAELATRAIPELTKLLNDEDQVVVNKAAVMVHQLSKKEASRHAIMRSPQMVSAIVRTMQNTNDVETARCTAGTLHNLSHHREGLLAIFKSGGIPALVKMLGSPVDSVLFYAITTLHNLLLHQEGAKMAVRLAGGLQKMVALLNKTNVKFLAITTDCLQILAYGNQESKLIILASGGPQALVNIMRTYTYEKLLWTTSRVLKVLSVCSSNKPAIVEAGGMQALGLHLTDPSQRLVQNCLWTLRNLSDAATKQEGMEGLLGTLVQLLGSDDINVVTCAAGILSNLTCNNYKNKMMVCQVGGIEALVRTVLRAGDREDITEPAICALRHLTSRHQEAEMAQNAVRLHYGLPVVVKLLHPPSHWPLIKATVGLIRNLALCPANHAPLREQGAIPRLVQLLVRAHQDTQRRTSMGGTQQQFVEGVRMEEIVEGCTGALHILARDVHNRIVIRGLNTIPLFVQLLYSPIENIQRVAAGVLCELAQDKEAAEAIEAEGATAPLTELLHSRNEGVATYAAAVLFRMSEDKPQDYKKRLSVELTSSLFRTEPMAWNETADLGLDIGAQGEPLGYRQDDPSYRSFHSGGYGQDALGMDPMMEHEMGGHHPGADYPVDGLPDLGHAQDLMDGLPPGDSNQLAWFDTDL
Put plainly: KD50 measurement using competitive fluorescence polarization (FP) with labelled TCF4. In kind it is binding. The conditions noted are these: fluorescence polarization, β-catenin; for Kd: read-out: β-Cat FP KD. A digest of the protocol:
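Each compound competes against labelled TCF4 (5 nM) for 100 nM β-catenin at room temperature, tested over 10 nM to 30 uM. Signal: polarization at 470/520 nm excitation/emission. Three repeat experiments were performed.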

This note sets out measurements from patent publication US12441768B2, “Compositions and methods for treating endometriosis” (EndoMet Biosciences, Inc., priority 2018, dated 2025).

Each structure is given as a SMILES string. Where a SMILES comes first, the peptide text is derived from it. Bounds are passed on as bounds.

`CC[C@H](C)[C@H](NC(=O)[C@H](CO)NC(=O)[C@H](CCC(=O)O)NC(=O)[C@@H]1CCCN1C(=O)[C@H](CC(C)C)NC(=O)[C@H](CCCNC(=N)N)NC(=O)CCN)C(=O)N[C@@H](CC(C)C)C(=O)N[C@@H](CC(=O)O)C(=O)N[C@@H](CCC(=O)O)C(=O)N[C@@H](Cc1c[nH]cn1)C(=O)N[C@H](C(=O)N[C@@H](CCC(N)=O)C(=O)N[C@@H](CCCNC(=N)N)C(=O)N[C@H](C(=O)N[C@@H](Cc1c[nH]c2ccccc12)C(=O)N1CCC[C@H]1C(N)=O)C(C)C)C(C)C` [compound 410] (HELM PEPTIDE1{[bAla].R.L.P.E.S.I.L.D.E.H.V.Q.R.V.W.P.[am]}$$$$V2.0) gave an EC50 in experiment [1] of more than 30 µM. In experiment [2], the “β-Cat FP Hill slope” value came to 1.6 and the Kd lay within 0.4 to 1 µM.

In experiment [1], `CC[C@H](C)[C@H](NC(=O)[C@@H](NC(=O)[C@H](CCC(N)=O)NC(=O)[C@@H]1CCCN1C(=O)[C@H](CC(=O)O)NC(=O)[C@H](CCC(=O)O)NC(=O)[C@H](CCC(=O)O)NC(=O)CCNC(C)=O)[C@@H](C)O)C(=O)N[C@@H](CC(C)C)C(=O)N[C@@H](CC(=O)O)C(=O)N[C@@H](CC(=O)O)C(=O)N[C@@H](Cc1c[nH]cn1)C(=O)N[C@@H](CC(C)C)C(=O)N[C@@H](CO)C(=O)N[C@@H](CCCNC(=N)N)C(=O)N[C@H](C(=O)N[C@@H](CC(C)C)C(=O)N[C@@H](CCCCN)C(N)=O)C(C)C` [compound 412] (HELM PEPTIDE1{[ac].[bAla].E.E.D.P.Q.T.I.L.D.D.H.L.S.R.V.L.K.[am]}$$$$V2.0) registered an EC50 of more than 30 µM. For the same molecule, in experiment [2], the “β-Cat FP Hill slope” value is listed as 0.7 and the Kd was in the range of 1 to 10 µM.

In turn, `CC[C@H](C)[C@H](NC(=O)[C@H](CO)NC(=O)[C@H](CCC(=O)O)NC(=O)[C@@H]1CCCN1C(=O)[C@H](CC(C)C)NC(=O)[C@H](CCCNC(=N)N)NC(=O)CCNC(C)=O)C(=O)N[C@@H](CC(C)C)C(=O)N[C@@H](CC(=O)O)C(=O)N[C@@H](CCC(=O)O)C(=O)N[C@@H](Cc1c[nH]cn1)C(=O)N[C@H](C(=O)N[C@@H](CCC(N)=O)C(=O)N[C@@H](CCCNC(=N)N)C(=O)N[C@H](C(=O)N[C@@H](Cc1c[nH]c2ccccc12)C(=O)N1CCC[C@H]1C(N)=O)C(C)C)C(C)C` [compound 413] (HELM PEPTIDE1{[ac].[bAla].R.L.P.E.S.I.L.D.E.H.V.Q.R.V.W.P.[am]}$$$$V2.0) yielded an EC50 in experiment [1] of more than 30 µM. In experiment [2], the “β-Cat FP Hill slope” value is recorded as 0.7 and the Kd was less than 0.4 µM.

In experiment [1], `CC[C@H](C)[C@@H]1NC(=O)[C@@H](NC(=O)[C@H](CCC(N)=O)NC(=O)[C@@H]2CCCN2C(=O)[C@H](Cc2c[nH]c3ccccc23)NC(=O)[C@H](CCCNC(=N)N)NC(C)=O)CCCCNC(=O)CC[C@@H](C(=O)N[C@@H](Cc2c[nH]cn2)C(=O)N[C@H](C(=O)N[C@@H](CCCNC(=N)N)C(=O)N[C@@H](CCCNC(=N)N)C(=O)N[C@H](C(=O)N[C@@H](Cc2c[nH]c3ccccc23)C(=O)N[C@@H](CCCNC(=N)N)C(N)=O)C(C)C)C(C)C)NC(=O)[C@H](CC(=O)O)NC(=O)[C@H](CC(C)C)NC1=O` [compound 428] (HELM PEPTIDE1{[ac].R.W.P.Q.K.I.L.D.E.H.V.R.R.V.W.R.[am]}$PEPTIDE1,PEPTIDE1,6:R3-10:R3$$$V2.0) came in with an EC50 of more than 30 µM. In experiment [2], the “β-Cat FP Hill slope” value amounted to 0.94 and the Kd was less than 0.4 µM.

In experiment [1], `CC[C@H](C)[C@@H]1NC(=O)[C@@H](NC(=O)[C@H](CCC(N)=O)NC(=O)[C@H](C)N(C)C(=O)[C@H](Cc2c[nH]c3ccccc23)NC(C)=O)CCCCNC(=O)C[C@@H](C(=O)N[C@@H](Cc2c[nH]cn2)C(=O)N[C@H](C(=O)N[C@@H](CCC(N)=O)C(=O)N[C@@H](CCCNC(=N)N)C(=O)N[C@H](C(=O)N[C@@H](Cc2c[nH]c3ccccc23)C(=O)NCC(N)=O)C(C)C)C2CCCCC2)NC(=O)[C@H](CC(=O)O)NC(=O)[C@H](CC(C)C)NC1=O` [compound 430] (HELM PEPTIDE1{[ac].W.[meA].Q.K.I.L.D.D.H.[O=C([C@@H](N[*:1])C1CCCCC1)[*:2]].Q.R.V.W.G.[am]}$PEPTIDE1,PEPTIDE1,5:R3-9:R3$$$V2.0) had an EC50 of 15 to 22.5 µM. Moreover, in experiment [2], the “β-Cat FP Hill slope” value came to 1.75 and the Kd is less than 0.4 µM.

In experiment [1], `CC[C@H](C)[C@@H]1NC(=O)[C@@H](NC(=O)[C@H](CCC(N)=O)NC(=O)[C@H](C)N(C)C(=O)[C@H](Cc2c[nH]c3ccccc23)NC(C)=O)CCCCNC(=O)CC[C@@H](C(=O)N[C@@H](Cc2c[nH]cn2)C(=O)N[C@H](C(=O)N[C@@H](CCC(N)=O)C(=O)N[C@@H](CCCNC(=N)N)C(=O)N[C@H](C(=O)N[C@@H](Cc2c[nH]c3ccccc23)C(=O)NCC(N)=O)C(C)C)C2CCCCC2)NC(=O)[C@H](CC(N)=O)NC(=O)[C@H](CC(C)C)NC1=O` [compound 435] (HELM PEPTIDE1{[ac].W.[meA].Q.K.I.L.N.E.H.[O=C([C@@H](N[*:1])C1CCCCC1)[*:2]].Q.R.V.W.G.[am]}$PEPTIDE1,PEPTIDE1,5:R3-9:R3$$$V2.0) returned an EC50 of more than 30 µM. Further, in experiment [2], the “β-Cat FP Hill slope” value is 0.7 and the Kd was less than 0.4 µM.

As for `CC[C@H](C)[C@@H]1NC(=O)[C@@H](NC(=O)[C@H](CCC(N)=O)NC(C)=O)CCCCNC(=O)CC[C@@H](C(=O)N[C@@H](Cc2c[nH]cn2)C(=O)N[C@H](C(=O)N[C@@H](CCC(N)=O)C(=O)N[C@@H](CCCNC(=N)N)C(=O)N[C@H](C(=O)N[C@@H](Cc2c[nH]c3ccccc23)C(=O)NCC(N)=O)C(C)C)C2CCCCC2)NC(=O)[C@H](CC(=O)O)NC(=O)[C@H](CC(C)C)NC1=O` [compound 440] (HELM PEPTIDE1{[ac].Q.K.I.L.D.E.H.[O=C([C@@H](N[*:1])C1CCCCC1)[*:2]].Q.R.V.W.G.[am]}$PEPTIDE1,PEPTIDE1,3:R3-7:R3$$$V2.0), the EC50 in experiment [1] was 22.5 to 30 µM. Moreover, in experiment [2], the “β-Cat FP Hill slope” value is on record as 0.7 and the Kd was less than 0.4 µM.

`CC[C@H](C)[C@@H]1NC(=O)[C@@H](NC(=O)[C@H](CCC(N)=O)NC(=O)[C@H](C)NC(=O)[C@H](Cc2c[nH]c3ccccc23)NC(C)=O)CCCCNC(=O)CC[C@@H](C(=O)N[C@@H](Cc2c[nH]cn2)C(=O)N[C@H](C(=O)N[C@@H](CCC(N)=O)C(=O)N[C@@H](CCCNC(=N)N)C(=O)N[C@H](C(=O)N[C@@H](Cc2c[nH]c3ccccc23)C(=O)NCC(N)=O)C(C)C)C2CCCCC2)NC(=O)[C@H](CC(=O)O)NC(=O)[C@H](CC(C)C)NC1=O` [compound 441] (HELM PEPTIDE1{[ac].W.A.Q.K.I.L.D.E.H.[O=C([C@@H](N[*:1])C1CCCCC1)[*:2]].Q.R.V.W.G.[am]}$PEPTIDE1,PEPTIDE1,5:R3-9:R3$$$V2.0) gave an EC50 in experiment [1] of more than 30 µM. In experiment [2], the “β-Cat FP Hill slope” value was found to be 1.86 and the Kd is less than 0.4 µM.

As to `CC[C@H](C)[C@@H]1NC(=O)[C@@H](NC(=O)[C@H](CCC(N)=O)NC(=O)[C@@H]2CCCCN2C(=O)[C@H](Cc2c[nH]c3ccccc23)NC(C)=O)CCCCNC(=O)CC[C@@H](C(=O)N[C@@H](Cc2c[nH]cn2)C(=O)N[C@H](C(=O)N[C@@H](CCC(N)=O)C(=O)N[C@@H](CCCNC(=N)N)C(=O)N[C@H](C(=O)N[C@@H](Cc2c[nH]c3ccccc23)C(=O)NCC(N)=O)C(C)C)C2CCCCC2)NC(=O)[C@H](CC(=O)O)NC(=O)[C@H](CC(C)C)NC1=O` [compound 442] (HELM PEPTIDE1{[ac].W.[O=C([C@@H]1CCCCN1[*:1])[*:2]].Q.K.I.L.D.E.H.[O=C([C@@H](N[*:1])C1CCCCC1)[*:2]].Q.R.V.W.G.[am]}$PEPTIDE1,PEPTIDE1,5:R3-9:R3$$$V2.0), the EC50 in experiment [1] is less than 7.5 µM. For the same molecule, in experiment [2], the “β-Cat FP Hill slope” value is 1.51 and the Kd is less than 0.4 µM.
